Measured values: US20250136607A1 (REGOR PHARMACEUTICALS, INC., priority 2021, published 2025)
Like-named read-outs stand apart in the source and are kept apart here.

Tests used:
[1] = target: Protein arginine deiminase 4 (PAD4) (Homo sapiens, UniProt Q9UM07); test: PAD4 ammonia release assay; format: biochemical; settings: for IC50: PAD4 ammonia release assay, BAEE substrate, 60 min at RT, read-out: Average IC50 Abs; for relative potency of separated isomers in the PAD4 biochemical assay: SFC-separated stereoisomer pairs
Chain of Protein arginine deiminase 4 (PAD4) (Q9UM07 whole entry): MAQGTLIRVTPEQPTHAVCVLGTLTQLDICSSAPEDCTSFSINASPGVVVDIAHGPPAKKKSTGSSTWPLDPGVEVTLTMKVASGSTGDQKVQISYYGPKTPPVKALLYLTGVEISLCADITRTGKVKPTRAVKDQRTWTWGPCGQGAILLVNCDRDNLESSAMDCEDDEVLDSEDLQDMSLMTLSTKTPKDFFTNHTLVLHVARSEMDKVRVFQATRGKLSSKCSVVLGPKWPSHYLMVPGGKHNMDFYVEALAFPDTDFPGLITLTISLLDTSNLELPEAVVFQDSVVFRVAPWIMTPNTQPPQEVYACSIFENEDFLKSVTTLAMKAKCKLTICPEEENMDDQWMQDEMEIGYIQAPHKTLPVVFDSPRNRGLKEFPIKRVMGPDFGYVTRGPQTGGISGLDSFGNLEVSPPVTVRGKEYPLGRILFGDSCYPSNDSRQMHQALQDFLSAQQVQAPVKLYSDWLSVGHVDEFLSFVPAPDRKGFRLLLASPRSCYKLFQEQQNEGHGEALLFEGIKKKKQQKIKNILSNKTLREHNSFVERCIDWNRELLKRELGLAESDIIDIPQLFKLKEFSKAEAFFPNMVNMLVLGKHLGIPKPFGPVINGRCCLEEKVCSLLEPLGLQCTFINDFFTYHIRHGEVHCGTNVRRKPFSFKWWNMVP
How it was run: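 Ammonia release from BAEE substrate (2× mix 600 μM) was measured after 60 min at RT, following 15 min enzyme–compound preincubation (PAD4 2× 20 nM; pH 8.0 HEPES, 2 mM CaCl2, TCEP; 1.25% DMSO). Detection used OPA/DTT/EDTA for 120 min. % inhibition was taken versus reference-compound and DMSO controls; IC50 by four-parameter logistic fit.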

[2] = test system: Citrullinated Histone H3 in 4T1 (TNBC cell line) cells; test: 4T1 CECN ELISA assay; format: cell-based; settings: 4T1 cells, stimulation with 50 μM A23187 for 4 h, read-out: Average IC50 Abs
Method: Cell culture: 4T1 cells were grown in DMEM+10% FBS+1% HEPES+1% PS. Cells plating: • 1) 4T1 cells were collected and the plate was centrifuged at 1000 rpm for 5 min. • 2) The 4T1 cells were diluted to 0.5×10^6 cells/mL and plated into a 96-well plate with 100 μL/well. The plate was then incubated in the incubator (5% CO2, 37° C.) for overnight to allow cells to adhere, exchanged fresh culture medium with 100 μL/well. Compound treatment: • 1) Preparation of compound serial dilution (source plate 500×, final DMSO concentration: 0.2%): briefly, compounds were dissolved in 100% DMSO to a concentration of 20 mM (the stock solution) and a 3-fold serial dilution with 8-point doses was performed. • 2) 10× compound solution was pipetted up and down; and 10 μL/well of compounds were added into each well and incubated for 30 min. Stimulation with 50 μM A23187: • 1) A solution of A23187 (500 μM) in complete DMDM (DMDM+10% FBS+1% PS+1 mM CaCl2) containing 150 U/mL S7 Nuclease was prepared. The obtained solution was added 10 μL/well into each well and incubated for 4 h in the incubator (5% CO2, 37° C.). • 2) The 4T1 cells treated with 10 μL/well complete DMDM without A23187 worked as negative control. Sample preparation: • 1) EDTA (0.5 M, 2 μL/well) were added to all the wells to stop the reaction. • 2) The plate was centrifuged at 1000 rpm for 5 min to collect supernatant. • 3) The supernatant was then diluted at least 1:2 before adding to the ELISA plate for citrullinated H3 analysis.
The standard was reconstituted with 2 mL of Assay buffer to 500 ng/mL. The reconstituted standard was relatively unstable at 4° C. and should be used within 3 hr after reconstitution.
• 1) 100 μL of the standards or diluted samples were added to the wells on the ELISA plate. • 2) The plate was covered with Cover Sheet and incubated for 2 h at RT on an orbital shaker.
On the day of the assay, the reagent was thawed at rt. For one plate, 1.2 mL of HRP Conjugate were diluted into 10.8 mL of assay buffer. A diluted HRP Conjugate was prepared shortly before use.
• 1) The wells were empties and rinsed four times with 1× wash buffer with 300 μL/well (Low speed). The plate was inverted between wash steps to empty the plate. After the last wash, the inverted plate was gently tapped on absorbent paper to remove the residual wash buffer. • 2) 100 μL of the HRP Conjugate working solution were added to each well of the plate. • 3) The plate was covered with cover sheet and incubated for 1 h at RT on an orbital shaker.
• 1) The wells were empties and rinsed four times with 1× wash buffer with 300 μL/well (low speed). The plate was inverted between wash steps to empty the plate. […] 100 μL of HRP STOP solution were added to each well of the plate.
• 1) Wipe the bottom of the plate with a clean tissue to remove fingerprints, dirt, etc. • 2) Read the plate at a wavelength of 450 nm.
The percent (%) inhibition at each concentration of compound was calculated based on and relative to the signal in the HPE and ZPE wells contained within each assay plate. The HPE wells worked as […], and the ZPE wells didn't contain any compound but rather DMSO (final concentration=[…]) as […]. The concentrations and % inhibition values for tested compounds were plotted and the concentration of compound required for 50% inhibition (IC50) was determined with a Four-parameter logistic dose response equation. The endpoint value (IC50) for the reference peptide/compound was evaluated in each experiment as a quality control measure. If the endpoint value is within 3-fold of the expected value then the experiment is deemed acceptable. The results of representative compounds of the present invention are provided in Table 3 below. ≤0.1 μM=“++++”; >0.1 and ≤0.5 μM=“+++”; >0.5 and ≤5.0 μM=“++”; >5.0 μM=“+”. “−”=not available.

| Structure (SMILES) | IC50 [1] [nM] | relative potency of separated isomers in the PAD4 biochemical assay [1] | IC50 ([2]; Mus musculus, 4T1, 4 h) [nM] | IC50 [2] [nM] | IC50 ([2]; Mus musculus) [nM] |
| --- | --- | --- | --- | --- | --- |
| CCC1CN(CCCO)c2cccc3cc(-c4nc5cc(C(=O)N6C[C@H]7CC[C@@H]6[C@@H]7N)cc(OC)c5n4C)n1c23 (single isomer, unassigned) [Example 86] | > 5000 |  |  | > 5000 |  |
| CCC1CN(CCCO)c2cccc3cc(-c4nc5cc(C(=O)N6C[C@H]7CC[C@@H]6[C@@H]7N)cc(OC)c5n4C)n1c23 (single isomer, unassigned) [Example 87] | 100 to 500 | more potent than Example 86 |  | ≤ 100 |  |
| C#CCn1c(-c2cc3cccc4c3n2C(CC)CN4CCCO)nc2cc(C(=O)N3C[C@H](N)C[C@@H](F)C3)cc(OC)c21 (stereo partly drawn) [Example 95, ((3R,5R)-3-amino-5-fluoropiperidin-1-yl)(2-(3-ethyl-1-(3-hydroxypropyl)-2,3-dihydro-1H-pyrrolo[1,2,3-de]quinoxalin-5-yl)-7-methoxy-1-(prop-2-yn-1-yl)-1H-benzo[d]imidazol-5-yl)methanone] | 100 to 500 |  | ≤ 100 |  |  |
| CCC1CN(CCCO)c2cccc3cc(-c4nc5cc(C(=O)N6C[C@H]7CC[C@@H]6[C@@H]7N)cc(F)c5n4CC)n1c23 (stereo partly drawn) [Example 96, ((1R,4R,7R)-7-amino-2-azabicyclo[2.2.1]heptan-2-yl)(1-ethyl-2-(3-ethyl-1-(3-hydroxypropyl)-2,3-dihydro-1H-pyrrolo[1,2,3-de]quinoxalin-5-yl)-7-fluoro-1H-benzo[d]imidazol-5-yl)methanone] | 100 to 500 |  |  |  | 100 to 500 |

More lines, main results first:

| IC50 [1] [nM] | relative potency of separated isomers in the PAD4 biochemical assay [1] | IC50 ([2]; Mus musculus, 4T1, 4 h) [nM] | IC50 [2] [nM] | Structure (SMILES) | IC50 ([2]; Mus musculus) [nM] |
| --- | --- | --- | --- | --- | --- |
| ≤ 100 | more potent than Example 81 | ≤ 100 |  | CCC1CN(CCCO)c2cccc3cc(-c4nc5cc(C(=O)N6C[C@H](N)C[C@@H](F)C6)cc(OC)c5n4C)n1c23 (single isomer, unassigned) [Example 82] |  |
| 100 to 500 |  | 100 to 500 |  | CCC1CN(CCCO)c2cccc3cc(-c4nc5cc(C(=O)N6C[C@H](N)C[C@@H](F)C6)cc(F)c5n4C)n1c23 (stereo partly drawn) [Example 75, ((3R,5R)-3-amino-5-fluoropiperidin-1-yl)(2-(3-ethyl-1-(3-hydroxypropyl)-2,3-dihydro-1H-pyrrolo[1,2,3-de]quinoxalin-5-yl)-7-fluoro-1-methyl-1H-benzo[d]imidazol-5-yl)methanone] |  |
